These results are taken from US8383088B2, “Coumestan-like antioxidants and UV absorbants” (BASF SE, priority 2007, dated 2013).

The nature of this experiment: DPPH assay of antioxidative (antiradical) activity. The settings on record: measured in EC50 and 1/EC50 values. An excerpt:
For tests of antioxidative activity, the DPPH assay is used. DPPH (2,2-Diphenyl-1-picrylhydrazyl) is a stable radical, which absorbs in its radical form at 515 nm. Upon reduction by an antioxidant (AH), the absorption disappears:
The rate of reaction (1) can be rather different for different antioxidants. In the case of the vitamins C and E, the equilibrium is reached in several minutes, however for other antioxidants it may also take hours. In the test, the ratio of the molar concentrations of the antioxidant and DPPH is varied (this ratio is named “EC”=efficient concentration), and the concentration of DPPH in the equilibrium state is measured for each ratio. Antiradical activity is defined as the amount of antioxidant necessary to decrease the initial DPPH-concentration by 50%, and is characterized by the so-called EC50 value. The smaller the EC50 value, the more efficient is the antioxidant. Thus, the inverse, 1/EC50, can be used to quantify the antiradical power.
Solutions of DPPH and the antioxidants in ethanol are prepared separately and added together for starting the reaction (0.5 cm^3 of a 250 μM antioxidant solution is added to 2.5 cm^3 of a 100 μM DPPH solution). The absorption is measured using a Perkin Elmer Lambda 20 spectrophotometer.
On the technique in general: Loss of DPPH colour is used to gauge radical scavenging.

Molecules are shown by their SMILES.

Consider `COc1c(O)c(O)cc2c1oc1cc(C)oc(=O)c12` [Compound A-1, 7,8-dihydroxy-6-methoxy-3-methyl-1H-pyrano[4,3-b]benzofuran-1-one], for which the “antioxidant/radical power compared to state-of-the-art antioxidants (101) and (102)” value was “significantly higher antioxidant/radical power”.

As for `Cl.NCCCCCc1cc2oc3cc(O)c(O)cc3c2c(=O)o1` [Compound A-23], the “antioxidant/radical power compared to state-of-the-art antioxidants (101) and (102)” value is recorded as “significantly higher antioxidant/radical power”.

Take `Cc1cc2oc3cc(O)c(O)cc3c2c(=O)o1` [Compound A-2, 7,8-dihydroxy-3-methyl-1H-pyrano[4,3-b]benzofuran-1-one]: the “antioxidant/radical power compared to state-of-the-art antioxidants (101) and (102)” value is listed as “significantly higher antioxidant/radical power”.
